Test results as given in US10799456B2, “Multiple drug lipid nanoparticle composition and related methods for extended drug levels in blood and lymph tissue” (priority 2015, dated 2020).

What was measured:
[1] = cited from earlier work
[2] = Particle size by photon correlation spectroscopy; format: physicochemical
Procedure: The mean particle size of lipid-drug nanoparticles and liposome control was determined by photon correlation spectroscopy (PCS) using a NICOMP™ 380ZLS instrument (NICOMP Particle Sizing Systems, Santa Barbara, Calif.). […] Samples were diluted with the same buffer to an identical final volume to analyze concentration effects. The light scattering data were analyzed based on intensity-weight NICOMP size distribution and expressed as a mean±SD.
Briefly, lipids and protease inhibitors were dissolved in chloroform:ethanol (3:1 v/v) and PMPA was added from a stock solution of 30 mg/ml in aqueous 150 mM NaHCO3. Solvent was removed by rotary evaporation and vacuum desiccation. The dry film was rehydrated to 200 mM lipid in 0.4% NaCl with 20 mM NaHCO3 buffer at 60° C. Particle size was reduced at 60° C. by bath sonication (laboratory scale) or high-pressure homogenization using an Emulsiflex-05 (Avestin, Ottawa, Canada) (clinical scale). LNPs were maintained at 60° C. to anneal for 30 min prior to cooling and stored at 4° C. Particle size was determined by photon correlation spectroscopy using a NICOMP 380 ZLS (Particle Sizing Systems, Santa Barbara, Calif.).

[3] = % Drug association to particles by assembly method; format: physicochemical
Source text: Select one or two drugs hydrophilic and water soluble (Class 2) drugs listed in Table 19 (for example, tenofovir and/or emtricitabine and/or lamivudine). • 3. Select the excipient combination (for example, 9 parts DSPC and 1 part PEG-DSPE). • 4. Prepare a single-phase miscible solvent that enables full solubilization of the chosen water-insoluble Class 1 drugs and water soluble Class 2 drugs plus the excipients from step 3. Examples include CHCl3:Methanol:Water (65:35:4); CHCl3:Ethanol:Water (65:35:4); CHCl3:Propanol:Water (65:35:4); and CHCl3:Hexanol:Water (65:35:4). • 5. The components in Steps 1, 2 and 3 are solubilized with the miscible solvent in step 4. • 6. The drugs (steps 1 and 2) as well as excipients (step 3) and the miscible solvent (step 4) are dried under reduced pressure with assistance of a combination of heat, reduced pressure and/or aerosolization to provide for uniformity and efficiency of drying. • 7. The dehydrated composition is heated above gel-to-liquid phase transition temperature of the excipient mixture (e.g., 50° C.). • 8. A buffered saline solution is prepared and the temperature is equilibrated to the same temperature as dehydrated composition. • 9. The buffered saline solution and dehydrated composition are gradually combined and maintained at the defined (e.g., 50° C.) for 3 hr. • 10. The resulting hydrated multi-drug lipid nanoparticles are size-reduced by sheering or forcing through small orifice or pressurized filter apparatus while maintaining at the defined temperature (in liquid phase of lipidic excipients).

[4] = Plasma time course of ATV/RTV/TFV lipid nanoparticles in primates; format: in vivo, Macaca nemestrina; conditions: male, Macaca nemestrina, in vivo, sc
Procedure: All animal procedures were performed under an approved protocol reviewed by the University of Washington Institutional Animal Care and Use Committee. […] ATV, RTV, and TFV in the plasma were extracted in duplicate and analyzed with a liquid chromatography-mass spectrometry assay with a validated reverse phase HPLC/MS/MS method, similar to that of lopinavir (LPV), RTV, and TFV. […] Antimicrobial agents and chemotherapy. 2014. The linear trapezoidal method was used to calculate the area under the plasma drug concentration-time curve (AUC) for ATV, RTV, and TFV during the time course, which was close to 168 h post-dosing. […] All drugs in buffer and plasma were analyzed using a validated HPLC/MS/MS analytical method, capable of analyzing […], and TFV. The one-step analysis for LPV, RTV, and TFV was published previously. […] Antimicrobial agents and chemotherapy. 2014. Briefly, the HPLC system was outfitted with a Shimadzu 20AD HPLC (Shimadzu Scientific Instruments, Inc., Pleasanton, Calif.). […] Multiple reaction monitoring (MRM) was used to detect transition ions from a specific precursor ion to product ion. The analytes were detected using the following m/z transitions: 705.5/168.2 for ATV, 548.3/392.3 for DRV, 721.3/296.1 for RTV, 288.1/176 for TFV, and 238.1/193.2 for cyheptamide.

[5] = Octanol-buffer distribution coefficient (shake-flask); format: physicochemical; conditions: room temperature
Procedure: The octanol-buffer drug distribution coefficient at room temperature was determined by a small-scale, shake-flask method described by Dittert L W, et al. Phase Solubility Technique in Studying the Formation of Complex Salts of Triamterene. Journal of pharmaceutical sciences. […] Briefly, phosphate-buffered saline (PBS) at pH 3, 5, and 7.4 was used as the aqueous phase. […] The mixture was centrifuged at 14,000 rpm (18,078 g) (Beckman Coulter™ Microfuge® 18 centrifuge, Beckman Coulter Inc., Brea, Calif.) to separate octanol and the aqueous phase. The drug concentration in the two phases was determined with high-performance liquid chromatography tandem mass spectrometry (HPLC/MS/MS). The distribution coefficient was calculated as the ratio of the drug concentration in the octanol phase to the drug concentration in the aqueous phase. Triplicate samples were used at each pH.

[6] = Drug incorporation/encapsulation (association) efficiency of multi-drug LNPs by dialysis; format: physicochemical
Procedure: The anti-HIV LNP formulations contain both unbound drug and drugs bound to lipid nanoparticles. […] Drugs were quantified by LC-MS/MS using acetonitrile precipitation. Encapsulation efficiency (EE) was calculated as follows: […]

[7] = cited from earlier work; for Hydrophobicity (Log P): Tables 20 and 21; for LogP: Tables 18 and 19
[8] = Drug incorporation efficiency into lipid-drug nanoparticles (dialysis); format: physicochemical; conditions: for Incorporation efficiency (%) / Drug incorporation (% total): preclinical 45 mL scale
Procedure: J Acquir Immune Defic Syndr. […] Journal of pharmaceutical sciences. […] The AAPS journal. […] Residual solvent was removed overnight by vacuum desiccation. The dried lipid-drug film was then rehydrated with 0.9% NaCl containing 20 mM sodium bicarbonate (pH 7.4). The lipid-drug samples were allowed to hydrate at 60° C. for 2 h. Then samples were sonicated (laboratory scale) or homogenized (preclinical scale) to achieve a homogenous suspension.
The incorporation efficiency was calculated as the ratio of the amount of incorporated drug over the total amount of drug loaded multiplied by 100%.

[9] = reported values; cited from earlier work
[10] = Plasma drug exposure of three multi-drug lipid formulations vs free drug in primates; conditions: monkey, in vivo, sc, AUC Lipid Drug 0-168 h, LPV/EFV/TFV combination

Row | SMILES | Water solubility @ 25° C. [1] [µg/mL] | % Drug Association to Particles, LNPs from mixture of dual solvent method [3] | % Drug Association to Particles, LNPs from single, miscible solvent method [3] | Hydrophobicity (Log P) [7] | LogP [7] | % Drug Association to Particles, Liposomes [9] | other results
1 | COC(=O)N[C@H](C(=O)N[C@@H](Cc1ccccc1)[C@@H](O)CN(Cc1ccc(-c2ccccn2)cc1)NC(=O)[C@@H](NC(=O)OC)C(C)(C)C)C(C)(C)C [Atazanavir (ATV), Atazanavir] | 0.11 | 90-100% | 90-100% | 5.6 | – | – | Particle size (nm) ([2]; lipid:drug 5:1 mol/mol): 68.2 ± 7.1 nm; Particle size (nm) ([2]; lipid:drug 8:1 mol/mol): 56.3 ± 4.1 nm; Particle size (nm) ([2]; lipid:drug 20:1 mol/mol): 34.6 ± 3.1 nm; AUC fraction (% total) 8-168 h [4]: 95.3%; Log D (measured) ([5]; pH 3, octanol/PBS): 3.40 ± 0.31; Log D (measured) ([5]; pH 5, octanol/PBS): 4.66 ± 0.27; Log D (measured) ([5]; pH 7.4, octanol/PBS): 5.77 ± 0.03; % particle-bound ([6]; Combination 2, lipid:ATZ:RTV:TFV 115:10:5:15, large scale): (91.9 ± 6.8) %; Incorporation efficiency (%) ([8]; LNPs with ATV + RTV + TFV (2:1:3), laboratory 0.2 mL scale): 104.2 ± 3.2%; Incorporation efficiency (%) / Drug incorporation (% total) ([8]; LNPs with ATV + RTV + TFV (2:1:3)): 85.5 ± 8.2%; Incorporation efficiency (%) / Drug incorporation (% total) ([8]; LNPs with ATV + RTV + TFV (2:1:3), listed as atazanavir): 85.5±8.2%; Incorporation efficiency (%) ([8]; LNPs with ATV + RTV, laboratory scale, lipid:drug 8:1): 93.5 ± 6.6%; Incorporation efficiency (%) ([8]; LNPs with ATV, laboratory scale, lipid:drug 8:1): 100.5 ± 8.2%; Incorporation efficiency (%) ([8]; lipid:drug 5:1 mol/mol, DSPC:DSPE-mPEG2000 8:2): 96.5 ± 2.6%; Incorporation efficiency (%) ([8]; lipid:drug 8:1 mol/mol, DSPC:DSPE-mPEG2000 8:2): 96.2 ± 3.8%; Incorporation efficiency (%) ([8]; lipid:drug 20:1 mol/mol, DSPC:DSPE-mPEG2000 8:2): 97.4 ± 1.8%
2 | C[C@@H]1CCO[C@H]2Cn3cc(C(=O)NCc4ccc(F)cc4F)c(=O)c(O)c3C(=O)N12 [Dolutegravir] | 95 | – | – | – | 2.4 | – | –
3 | O=C1Nc2ccc(Cl)cc2[C@@](C#CC2CC2)(C(F)(F)F)O1 [Efavirenz] | 0.000093 | 76% | 80-90% | 4 | 4 | 80% | % particle-bound ([6]; Combination 3, lipid:LPV:EFV:TFV 200:26.6:20:40, large scale): (78.7) %; AUC [10]: 31200 ± 2700 ng·h/mL
4 | Nc1nc(=O)n([C@@H]2CS[C@H](CO)O2)cc1F [Emtricitabine] | 112000 | 3-10% | 78-80% | −1.4 | −2.4 | 1-2% | –
5 | CC(C)(C)NC(=O)[C@@H]1CN(Cc2cccnc2)CCN1C[C@@H](O)C[C@@H](Cc1ccccc1)C(=O)N[C@H]1c2ccccc2C[C@H]1O [Indinavir] | – | – | – | – | 2.3 | – | –
6 | Nc1ccn([C@@H]2CS[C@H](CO)O2)c(=O)n1 [Lamivudine] | – | 10-30% | 85% | – | – | 4-5% | –
7 | Cc1nnc(C(=O)NC(C)(C)c2nc(C(=O)NCc3ccc(F)cc3)c(O)c(=O)n2C)o1 [Raltegravir] | 100 | 9-25% | 75-89% | – | −0.39 | – | –
8 | Cc1cc(/C=C/C#N)cc(C)c1Nc1ccnc(Nc2ccc(C#N)cc2)n1 [Rilpivirine] | 0.094 | 75-76% | 90-100% | 4.5 | – | 14% | –
